Measured values taken from patent publication US20040044226A1, “Estrogen receptor modulators” (priority 2003, published 2004).

System: MCF-7 cells
Assay: MCF-7 Estrogen Dependent Proliferation Assay
Assay type: cell-based
Settings: Homo sapiens, MCF7, estradiol added to Estrogen Depleted Media (EDM), read-out: EC50 of stimulation of growth of MCF-7 cells
Excerpt: MCF-7 Estrogen Dependent Proliferation Assay MCF-7 cells (ATCC #HTUB-22) are human mammary gland adenocarcinoma cells that require estrogen for growth. The growth media (GM) for the MCF-7 cells is Minimum Essential Media (without phenol red) supplemented with fetal bovine serum(FBS) to 10%. The FBS serves as the sole source of estrogen and this GM supports the full growth of the cells and is used for the routine growth of the cell cultures. When MCF-7 cells are placed in a media in which 10% Charcoal-Dextran treated fetal bovine serum (CD-FBS) is substituted for FBS, the cells will cease to divide but will remain viable. […] The addition of estradiol to EDM stimulates the growth of the MCF-7 cells in a dose dependent manner with an EC50 of […]. Growing MCF-7 cells are washed several times with EDM and the cultures then maintained in EDM for a minimum of 6 days in order to deplete the cells of endogenous estrogen. On day 0 (at the start of the assay), these estrogen depleted cells are plated into 96-well cell culture plates at a density of 1000 cells/well in EDM in a volume of 180 ul/well. […] At this point, the culture supernatants are aspirated, the cells washed 2× with PBS, the wash solution aspirated and the protein content of each well determined. Each drug dilution is evaluated on a minimum of 5 wells and the range of dilution of the test compounds in the assay is 0.001 nM to 1000 nM. […]

EC50: 2 pM
Structure (SMILES): C[C@]12CC[C@@H]3c4ccc(O)cc4CC[C@H]3[C@@H]1CC[C@@H]2O [estradiol]
